From ChEMBL document CHEMBL1201862, “PubChem BioAssay data set” (2004)
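48-hour exposure; five concentrations; linearly interpolated endpoints. Here, GI50 denotes the concentration required for 50% inhibition of growth.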 Active and inactive are the calls of the source. No stated cut-off is given here; in the data, active = GI50 up to about 1.1 µM and inactive = higher.

Columns and labels:
Test in all cases: NCI anticancer screen, dose series, 48 h
CCRF-CEM = system: CCRF-CEM
EKVX = system: EKVX
HCC 2998 = system: HCC 2998
HCT-116 = system: HCT-116
HCT-15 = system: HCT-15
HOP-62 = system: HOP-62
IGROV-1 = system: IGROV-1
K562 = system: K562
M14 = system: M14
OVCAR-8 = system: OVCAR-8
RPMI-8226 = system: RPMI-8226
RXF 393 = system: RXF 393
SF-295 = system: SF-295
SK-MEL-28 = system: SK-MEL-28
SK-OV-3 = system: SK-OV-3
SR = system: SR
TK-10 = system: TK-10
U-251 = system: U-251
UACC-257 = system: UACC-257
OVCAR-4 = system: OVCAR-4

SMILES	GI50 (CCRF-CEM)	GI50 (EKVX)	GI50 (HCC 2998)	GI50 (HCT-116)	GI50 (HCT-15) [µM]	GI50 (HOP-62)	GI50 (IGROV-1)	GI50 (K562)	GI50 (M14)	GI50 (OVCAR-8)	GI50 (RPMI-8226)	GI50 (RXF 393)	GI50 (SF-295)	GI50 (SK-MEL-28)	GI50 (SK-OV-3)	GI50 (SR)	GI50 (TK-10)	GI50 (U-251)	GI50 (UACC-257)	GI50 (OVCAR-4)
COc1ccc(C2c3cc4c(cc3OC(NNc3ccccc3)C2C)OCO4)cc1 (stereo not drawn)	4.01 µM (inactive)	3.75 µM (inactive)	1.82 µM (inactive)	4.44 µM (inactive)	1.05	3.5 µM (inactive)	7.31 µM (inactive)	1.7 µM (inactive)	6.14 µM (inactive)	24.9 µM (inactive)	4.47 µM (inactive)	8.51 µM (inactive)	2.08 µM (inactive)	26.4 µM (inactive)	> 100 µM (inactive)	1.71 µM (inactive)	8.97 µM (inactive)	7.35 µM (inactive)	5.79 µM (inactive)	
C[Si](C)(C)OC1(C#N)C2C3CC4C2C(=O)C2C4C3C21 (stereo not drawn)	> 100 µM (inactive)		> 100 µM (inactive)	> 100 µM (inactive)	> 100	> 100 µM (inactive)	> 100 µM (inactive)	> 100 µM (inactive)	> 100 µM (inactive)	> 100 µM (inactive)	> 100 µM (inactive)	> 100 µM (inactive)		> 100 µM (inactive)	> 100 µM (inactive)	> 100 µM (inactive)	> 100 µM (inactive)	> 100 µM (inactive)	> 100 µM (inactive)	> 100 µM (inactive)
Cc1ccc(C(=O)Nc2ccc(S(=O)(=O)O)c3cc(S(=O)(=O)O)cc(S(=O)(=O)O)c23)cc1NC(=O)c1cccc(N)c1	> 100 µM (inactive)	> 100 µM (inactive)	> 100 µM (inactive)		> 100	> 100 µM (inactive)	> 100 µM (inactive)	> 100 µM (inactive)	> 100 µM (inactive)	> 100 µM (inactive)		> 100 µM (inactive)	> 100 µM (inactive)	> 100 µM (inactive)	> 100 µM (inactive)	> 100 µM (inactive)	> 100 µM (inactive)	> 100 µM (inactive)	> 100 µM (inactive)	> 100 µM (inactive)
Cc1c(O)c(OC2OC(CO)C(O)C(O)C2O)cc2c1CC[C@@H]1C2(C)C(=O)C[C@]2(C)[C@@H]([C@@](C)(O)C(O)CCC(C)(C)O)[C@H](O)C[C@@]12C (stereo partly drawn)	> 100 µM (inactive)	> 100 µM (inactive)	> 100 µM (inactive)	> 100 µM (inactive)	> 100	> 100 µM (inactive)	> 100 µM (inactive)	> 100 µM (inactive)	> 100 µM (inactive)	> 100 µM (inactive)		> 100 µM (inactive)	> 100 µM (inactive)	> 100 µM (inactive)	> 100 µM (inactive)	> 100 µM (inactive)	> 100 µM (inactive)	> 100 µM (inactive)	> 100 µM (inactive)	> 100 µM (inactive)
COc1cccc(-c2cc(=O)c3ccc(C)nc3[nH]2)c1	0.0459 µM (active)	1.96 µM (inactive)	0.0715 µM (active)	0.0448 µM (active)	0.0402	0.0904 µM (active)	0.0461 µM (active)	0.0232 µM (active)	0.0454 µM (active)	0.0847 µM (active)	0.034 µM (active)	0.0274 µM (active)	0.0371 µM (active)		0.051 µM (active)	0.016 µM (active)	> 100 µM (inactive)	0.0508 µM (active)		3.78 µM (inactive)
C=CCOc1cc2c(cc1C(C)c1ccc(OC)cc1)OCO2 (stereo not drawn)	0.443 µM (active)		0.887 µM (active)	0.525 µM (active)	0.489	0.495 µM (active)		0.39 µM (active)	0.67 µM (active)	0.624 µM (active)	0.78 µM (active)	0.091 µM (active)	0.299 µM (active)	> 100 µM (inactive)	0.311 µM (active)	0.299 µM (active)	7.41 µM (inactive)	0.447 µM (active)	0.263 µM (active)	> 100 µM (inactive)
c1cc(-c2sc(-c3ccncc3)c(-c3ccncc3)c2-c2ccncc2)ccn1		13.1 µM (inactive)	3.27 µM (inactive)	12.9 µM (inactive)	18.5	18.5 µM (inactive)	18.2 µM (inactive)	28.2 µM (inactive)	16.5 µM (inactive)	24.4 µM (inactive)	33.9 µM (inactive)	16.3 µM (inactive)	17.3 µM (inactive)	19.6 µM (inactive)	20.9 µM (inactive)	14.2 µM (inactive)	15.2 µM (inactive)	14.1 µM (inactive)	17 µM (inactive)	33 µM (inactive)
CCOC(=O)c1nc2ccccc2nc1NCc1ccc(OC)cc1	> 100 µM (inactive)	> 100 µM (inactive)	> 100 µM (inactive)	54.8 µM (inactive)	> 100	> 100 µM (inactive)	> 100 µM (inactive)	> 100 µM (inactive)		> 100 µM (inactive)	> 100 µM (inactive)	23.4 µM (inactive)	> 100 µM (inactive)	> 100 µM (inactive)	> 100 µM (inactive)	> 100 µM (inactive)	17 µM (inactive)	64.3 µM (inactive)	> 100 µM (inactive)	> 100 µM (inactive)
